Data published in patent publication US10562898B2, “Substituted benzenesulfonamides as inhibitors of alpha-4 beta-7 integrin activity” (EA PHARMA CO., LTD., priority 2016, dated 2020).

System: mouse colitis model induced by transfer of IL-10−/− cells
Assay: Mouse colitis model induced by transfer of IL-10−/− cells, intestinal tract weight
Assay type: in vivo
Settings: oral, three times per day for 14 days
Description: As a method for preparing mouse colitis model induced by transfer of IL-10^−/− cells, used was the method described in J Crohns Colitis. 2013 December; 7 (11): e533-42.
Each test substance was suspended in a 0.5% methylcellulose aqueous solution to be contained at 30, 10, 3, or 1 mg/mL, and was orally administered with Terumo syringe (1 mL) and a metal probe for mouse in a dose of 10 ml per kilo gram of animal body weight. The administration was performed three times per day for 14 days.
An intestinal tract weight as a medicinal effect indicator was measured by the following method. On the final necropsy day, the large intestine from the anus to just before the cecum was taken out, the content in the intestinal tract was washed away with physiological saline, the moisture was lightly removed, and the weight of the large intestine was measured. The inhibitory rate (%) in each of compound administered groups was figured out based on the average value of intestinal tract weights per group under the setting in which a colitis onset group was scored at 0% and a normal group was scored at 100%.

Row | SMILES | Inhibitory Rate (%) (intestinal tract weight) (Dose 30 mg/kg) | Inhibitory Rate (%) (intestinal tract weight) (Dose 300 mg/kg) | Inhibitory Rate (%) (intestinal tract weight) (Dose 10 mg/kg) | Inhibitory Rate (%) (intestinal tract weight) (Dose 100 mg/kg)
1 | Cc1cn(C)c(=O)n(-c2ccc(C[C@H](NC(=O)c3cc(F)c(NS(=O)(=O)c4ccc(NC(=O)C(C)(C)C)cc4)cc3F)C(=O)OCC(C)C)cn2)c1=O [Compound P73] | 21.9 | 38.8 | – | –
2 | CCOC(=O)[C@H](Cc1ccc(-n2c(=O)c(C)cn(C)c2=O)nc1)NC(=O)c1cc(F)c(NS(=O)(=O)c2ccc(NC(=O)C(C)(C)C)cc2)cc1F [Compound P69] | 36.1 | 51.1 | – | –
3 | CCOC(=O)[C@H](Cc1ccc(-n2c(=O)cc(C)n(C)c2=O)nc1)NC(=O)c1cc(F)c(NS(=O)(=O)c2ccc(NC(=O)C(C)(C)C)cc2)cc1F [Compound P52] | 39.9 | 42.8 | – | –
4 | Cc1c(C)n(C)c(=O)n(-c2ccc(C[C@H](NC(=O)c3cc(F)c(NS(=O)(=O)c4ccc(NC(=O)C(C)(C)C)cc4)cc3F)C(=O)OC(C)C)cc2)c1=O [Compound P2] | – | – | 24.6 | 52.2
5 | CC(C)COC(=O)[C@H](Cc1ccc(-n2c(=O)ccn(C)c2=O)nc1)NC(=O)c1cc(F)c(NS(=O)(=O)c2ccc(NC(=O)C(C)(C)C)cc2)cc1F [Compound P74] | 12.5 | 47.1 | – | –
6 | Cc1cc(=O)n(-c2ccc(C[C@H](NC(=O)c3cc(F)c(NS(=O)(=O)c4ccc(NC(=O)C(C)(C)C)cc4)cc3F)C(=O)OCC(C)C)cn2)c(=O)n1C [Compound P97] | 17.5 | 43.6 | – | –
7 | CC(C)OC(=O)[C@H](Cc1ccc(-n2c(=O)ccn(C)c2=O)nc1)NC(=O)c1cc(F)c(NS(=O)(=O)c2ccc(NC(=O)C(C)(C)C)cc2)cc1F [Compound P59] | 46.7 | 58.6 | – | –
